Reference: PubChem BioAssay (NCI)
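Five concentrations, 48 hours, 96-well plates. TGI marks complete inhibition of growth.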

Experiments:
Test in all cases: NCI tumour cell line growth inhibition, 48 h
MDA-N = test system: MDA-N
MDA-MB-231 breast = test system: MDA-MB-231 breast
SNB-78 CNS = test system: SNB-78 CNS
P388 leukemia = test system: P388 leukemia
XF 498 CNS = test system: XF 498 CNS
SN12K1 renal = test system: SN12K1 renal
P388/ADR leukemia = test system: P388/ADR leukemia
HOP-18 NSCLC = test system: HOP-18 NSCLC
LXFL 529 NSCLC = test system: LXFL 529 NSCLC

`C=CCNC(=O)CN(CC(=O)OC)C1CCCCC1N(CC(=O)OC)CC(=O)OC` (stereo unspecified) gave a TGI (MDA-N) greater than 100 µM and a TGI (MDA-MB-231 breast) greater than 100 µM.

For `Cc1cn(C2CC(O)C(Cn3nncc3Cn3ncc(=O)[nH]c3=O)O2)c(=O)[nH]c1=O` (stereo unspecified), the TGI (MDA-N) was greater than 100 µM and the TGI (MDA-MB-231 breast) was greater than 100 µM.

In the case of `CC(C)=CC(=O)OC1C2C(C)=CC(O)C(O)C2(C)C2C3(O)OCC24C(CC(=O)OC14)C(C)C3O` (stereo unspecified), the TGI (SNB-78 CNS) is reported as 1.11 µM, the TGI (P388 leukemia) is reported as 0.0201 µM and the TGI (XF 498 CNS) is reported as 0.587 µM. The TGI (SN12K1 renal) was 0.0909 µM, the TGI (P388/ADR leukemia) was 7.09 µM and the TGI (HOP-18 NSCLC) was 7.58 µM.

For `O=C(O)C12CC3CC(C1)C2C=C3P(=O)(O)O` (stereo unspecified), the TGI (LXFL 529 NSCLC) was greater than 100 µM.
